Read-outs that look alike come from different tables or passages of the source.
Experiments:
[1] = tested on: pancreatic cancer cells PANC-1 (ATCC CRL-1469); test: SRB (Sulforhodamine B) assay in PANC-1 cells; format: cell-based; conditions: Homo sapiens, read-out: IC50 (PANC-1)
Protocol: (§1) FIGS. 1A-1B show the IC50 curves of the twelve investigational β-lactams in pancreatic cancer cells PANC-1 (ATCC CRL-1469) and normal pancreatic ductal epithelial cells (ATCC CRL-4038). The GraphPad Prism software was used to process the results. The IC50 values were determined by SRB (Sulforhodamine B) assay following standard procedure. PANC-1 cells were plated in 96 well plates and treated with 1, 10, 100, 1000 and 10,000 nM of each of the drugs in triplicate for 72 hrs. Cells were fixed, washed and stained with SRB dye, the stained cells were washed, and the dye solubilized. It was read using a plate reader at 565 nm. The IC50 values were calculated assuming that the 10 μM sample has reached saturation. Following similar way, IC50 values were determined for normal pancreatic ductal epithelial cells.
(§2) As mentioned earlier, PANC-1 is referred to generically as the “gold standard of pancreatic cancers” representing as it does almost total resistance to GEM, the first line treatment currently used in clinical situations. Pancreatic cancer cells PANC-1 (ATCC CRL-1469) and normal pancreatic ductal epithelial cells (ATCC CRL-4038) were used in this study. The GraphPad Prism software was used to process the results. […] Cells were fixed, washed and stained with SRB dye, the stained cells were washed, and the dye solubilized. It was read using a plate reader at 565 nm. The IC50 values were calculated assuming that the 10 μM sample has reached saturation. Following similar way, IC50 values were determined for normal pancreatic ductal epithelial cells.

[2] = tested on: normal pancreatic ductal epithelial cells (ATCC CRL-4038); test: SRB (Sulforhodamine B) assay in normal pancreatic ductal epithelial cells; format: cell-based; conditions: Epithelial cell, read-out: IC50 (NPC)
Protocol: as §1, §2

PANC-1 tumorspheres = test: 3D-tumorsphere formation assay; format: cell-based, human; conditions: for IC50: Homo sapiens, tumorspheres larger than 100 micrometers counted after 144 hrs
Protocol: Number of tumorspheres formed can be used to distinguish the efficacy of different anticancer drugs in a more physically acceptable method than 2D culture. Based on selectivity and toxicity towards PANC-1 cells in comparison to normal pancreatic ductal epithelial cells (Table D), six compounds (A, B, C, E, F, and G) were chosen for the 3D-tumorsphere formation assay. The assay was carried out by following the protocol developed by Johnson et al., (2013). PANC-1 cells (5000) were plated as single cells in Corning ultra-low attachment 24 well plates in 0.5 ml DMEM+10% FBS. The cells were grown in a humidified atmosphere of 5% CO2 for 168 hrs. 0.1 ml Media was added on 72nd and 144 hrs. The β-lactams were dissolved in DMSO and maintained at −20° C. On the day of assay, on the addition of media, the drugs were freshly diluted in media. The final concentrations of drugs were 0, 1 nM, 10 nM, 100 nM, 1 uM, 10 μM. After 144 hours the total number tumorspheres that were larger than 100 micrometers were counted in a field of 1 mm×1 mm at 10× magnification in a bright field microscope. The data was plotted and the IC50 value was calculated.
3D-tumorsphere formation assay is considered to be a fast and economical intermediary step between in vitro and in vivo biological evaluations. A tumorsphere is a solid, spherical formation developed from the proliferation of a single cancer stem/progenitor cell in 3D culture. These cells are easily distinguishable from single or aggregated as they appear to become fused together and individual cells cannot be appearing to become fused together and individual cells cannot be identified. The size can vary from less than 50 micrometers to 250 micrometers. The number of tumorspheres formed can be used to characterize the cancer stem cell population within different in vitro cultured cancer cell lines. The number of tumorspheres formed can also be used to distinguish the efficacy of different anticancer drugs in a more physically acceptable method than 2D culture. Based on selectivity and toxicity towards PANC-1 cells in comparison to normal pancreatic ductal epithelial cells (Table D), six compounds (A, B, C, E, F, and G) were chosen for the 3D-tumorsphere formation assay. The assay was carried out by following the protocol developed by Johnson et al., (2013). […] The below steps were followed to accomplish the assay. • 5000 PANC-1 cells were plated as single cells in Corning ultra-low attachment 24 well plates in 0.5 ml DMEM+10% FBS. • Cells were grown in a humidified atmosphere of 5% CO2 for 168 hrs. 0.1 ml Media was added on 72nd and 144 hrs. • Drugs were dissolved in DMSO and maintained at −20° C. On the day of assay, on the addition of media, the drugs were freshly diluted in media. • The final concentrations of drugs were 0, 1 nM, 10 nM, 100 nM, 1 μM, 10 μM. • After 144 hrs the total number tunorspheres that were larger than 100 micrometers were counted in a field of 1 mm×1 mm at 10× magnification in a bright field microscope. The data was plotted and the IC50 value was calculated.

HPAF-II = test: Cytotoxicity IC50 in HPAF-II cells; format: cell-based; conditions: Homo sapiens; HPAF-II cell line; read-out: IC50 (mean ± standard error)
Source text: (§3) B. Cytotoxicity Studies: Determination of IC50 Values (Single Run) in Capan-2, HPAC. HPAF-II, and HS766T Cell Lines
(§4) Capan-2, HPAC. HPAF-H, and HS766T. The compounds A, D, E, G, and H were chosen randomly, out of twelve β-laclam molecules, to carry out this evaluation.

HS 766T = test: Cytotoxicity IC50 in HS 766T cells; format: cell-based; conditions: Homo sapiens, Hs766T; HS 766T cell line; read-out: IC50 (mean ± standard error)
Source text: as §3, §4

PANC-1 cells = test: Flow cytometric cell cycle analysis; format: cell-based, human; conditions: tested for 24, 48 and 72 hrs
Protocol: The noise was cleared. […] After 72 hrs all the cells (including floaters) were collected, the adhered cells were trypsinized and collected as well. The cells were then centrifuged in a 50 mL centrifuge tube. The pellet was washed with PBS and reconstituted in 500 μL PBS. The cells were then fixed in ice cold ethanol by adding the ethanol dropwise while gently vortexing the cells. Stored at 4° C. for overnight. The cells were then centrifuged, and the pellet reconstituted in Guava cell cycle reagent and analyzed in a Guava flow cytometer. A similar experiment was conducted with normal pancreatic ductal epithelial cells (NPC) and the drug treatment was done according to the IC50 values observed in the 2D assay conducted on them (Table E). Please note that 2N represents G0/G1 and 4N for G2 phases.
After 72 hrs all the cells (including floaters) were collected, the adhered cells were trypsinized and collected as well. The cells were then centrifuged in a 50 mL centrifuge tube. The pellet was washed with PBS and reconstituted in 500 μL PBS. The cells were then fixed in ice cold ethanol by adding the ethanol dropwise while gently vortexing the cells. […] The cells were then centrifuged, and the pellet reconstituted in Guava cell cycle reagent and analyzed in a Guava flowcytometer. […] First set of data with PANC-1 cells were analyzed by using FlowJo software, the noise was cleared (FIG. 3). […]

[3] = tested on: pancreatic cancer cells PANC-1 (ATCC CRL-1469); conditions: cited from earlier work
[4] = PANC-1, 2D-culture, SRB, 72 hrs, average of 3 runs
[5] = 2D-culture, SRB, average of 3 runs

| Structure (SMILES) | melting point [°C] | IC50 [1, 4] [nM] | IC50 [2, 5] [nM] | IC50 (PANC-1 tumorspheres) [nM] | also measured |
| --- | --- | --- | --- | --- | --- |
| Cc1ccc(S(=O)(=O)O[C@@H]2C(=O)N(c3cc4c5ccccc5ccc4c4ccccc34)[C@H]2c2ccc(F)cn2)cc1 (racemic) [(±)-Trans-N-(chrysen-6-yl)-2-(5-fluoropyridin-2-yl)-4-oxoazetidin-3-yl 4-methylbenzenesulfonate] | 220 to 221 | – | – | – | – |
| CS(=O)(=O)O[C@@H]1C(=O)N(c2cc3c4ccccc4ccc3c3ccccc23)[C@H]1c1ccc(F)cn1 (racemic) [(±)-Trans-N-(chrysen-6-yl)-2-(5-fluoropyridin-2-yl)-4-oxoazetidin-3-yl methanesulfonate] | 253 to 254 | – | – | – | – |
| N#CC1CN(S(=O)(=O)O[C@@H]2C(=O)N(c3cc4c5ccccc5ccc4c4ccccc34)[C@H]2c2ccc(F)cn2)C1 (racemic) [Compound C, (±)-Trans-N-(chrysen-6-yl)-2-(5-fluoropyridin-2-yl)-4-oxoazetidin-3-yl 3-cyanoazetidine-1-sulfonate] | 212 to 213 | 3.52 | 42.5 | 2.33 | activity in 3D-tumorsphere formation assay compared with 2D-culture (PANC-1 tumorspheres): higher activity in 3D-tumorphere formation assay than 2D-culture |
| O=C1[C@@H](OS(=O)(=O)N2CCCC2)[C@H](c2ccc(F)cn2)N1c1cc2c3ccccc3ccc2c2ccccc12 (racemic) [Compound I, (±)-Trans-N-(chrysen-6-yl)-2-(5-fluoropyridin-2-yl)-4-oxoazetidin-3-yl pyrrolidine-1-sulfonate] | 205 to 206 | 58.6 | 201 | – | – |
| CC(C)N(C)S(=O)(=O)O[C@@H]1C(=O)N(c2cc3c4ccccc4ccc3c3ccccc23)[C@H]1c1ccc(F)cn1 (racemic) [E, (±)-Trans-N-(chrysen-6-yl)-2-(5-fluoropyridin-2-yl)-4-oxoazetidin-3-yl isopropyl(methyl)sulfamate] | 166 to 167 | 8.65 | 424 | 6.25 | IC50 (HPAF-II): 500 ± 160 nM; IC50 (HS 766T): 40 nM; activity in 3D-tumorsphere formation assay compared with 2D-culture (PANC-1 tumorspheres): higher activity in 3D-tumorphere formation assay than 2D-culture |
| O=C1[C@@H](OS(=O)(=O)C2CC2)[C@H](c2ccc(F)cn2)N1c1cc2c3ccccc3ccc2c2ccccc12 (racemic) [F, (±)-Trans-N-(chrysen-6-yl)-2-(5-fluoropyridin-2-yl)-4-oxoazetidin-3-yl cyclopropanesulfonate] | 180 to 181 | 27.2 | 356 | 19.1 | activity in 3D-tumorsphere formation assay compared with 2D-culture (PANC-1 tumorspheres): higher activity in 3D-tumorphere formation assay than 2D-culture |
| CN1CCN(S(=O)(=O)O[C@@H]2C(=O)N(c3cc4c5ccccc5ccc4c4ccccc34)[C@H]2c2ccc(F)cn2)CC1 (racemic) [G, (±)-Trans-N-(chrysen-6-yl)-2-(5-fluoropyridin-2-yl)-4-oxoazetidin-3-yl 4-methylpiperazine-1-sulfonate] | 146 to 147 | 2.69 | 8.43 | – | IC50 (HPAF-II): 1180 ± 260 nM |
| C[Si](C)(C)CCS(=O)(=O)O[C@@H]1C(=O)N(c2cc3c4ccccc4ccc3c3ccccc23)[C@H]1c1ccc(F)cn1 (racemic) [H, (±)-Trans-N-(chrysen-6-yl)-2-(5-fluoropyridin-2-yl)-4-oxoazetidin-3-yl 2-(trimethylsilyl)ethane-1-sulfonate] | 210 to 211 | 30.4 | 48.5 | – | IC50 (HPAF-II): 660 ± 120 nM; IC50 (HS 766T): 790 ± 120 nM |
| CN(C)S(=O)(=O)O[C@@H]1C(=O)N(c2cc3c4ccccc4ccc3c3ccccc23)[C@H]1c1ccc(F)cn1 (racemic) [J, (±)-Trans-N-(chrysen-6-yl)-2-(5-fluoropyridin-2-yl)-4-oxoazetidin-3-yl dimethylsulfamate] | 196 to 198 | 212 | 1050 | – | – |
| O=C=NS(=O)(=O)O[C@@H]1C(=O)N(c2cc3c4ccccc4ccc3c3ccccc23)[C@H]1c1ccc(F)cn1 (racemic) [K, (±)-Trans-N-(chrysen-6-yl)-2-(5-fluoropyridin-2-yl)-4-oxoazetidin-3-yl sulfurisocyanatidate] | – | – | – | – | IC50 ([1]; PANC-1, 72 h): 29.6 nM; IC50 [2]: 416 nM |
| Cc1ccc(S(=O)(=O)O[C@@H]2C(=O)N(c3cc4c5ccccc5ccc4c4ccccc34)[C@H]2c2ccc(F)cn2)cc1 (racemic) [L, (±)-Trans-N-(chrysen-6-yl)-2-(5-fluoropyridin-2-yl)-4-oxoazetidin-3-yl 4-methylbenzenesulfonate] | – | 3.38 | 13.3 | 4.57 | time of maximum cell cycle blockage (PANC-1 cells): 72 h |
| CS(=O)(=O)O[C@H]1C(=O)N(c2cc3c4ccccc4ccc3c3ccccc23)C1c1ccccn1 (stereo partly drawn) [TX-262] | – | – | – | – | IC50 ([3]; TX-262, from Banik et al., WO 2012/103456, read-out: IC50 (PANC-1)): 430 nM; IC50 ([3]; TX-262, read-out: PANC-1 cell lines IC50): 430 nM |

From US20210214341A1, “SUBSTITUTED PYRIDINYL AZETIDINONE DERIVATIVES FOR USE IN TREATING CANCER AND OTHER DISEASES” (The Board of Regents of the University of Texas System, priority 2018, published 2021)
